Article PMC9044946 (Journal of Virology, 2022)
Structures can show the parent of a compound that is named as a salt.

Assays:
[1] = orally administered three times a day; cited from earlier work
[2] = tested on: TMPRSS2-induced production of S2′; assay type: cell-based; details: acceptor cells ACE2 and TMPRSS2, 120 μM
[3] = tested on: S-mediated cell-to-cell fusion; assay type: cell-based; details: acceptor cells ACE2 plus TMPRSS2, camostat 120 μM

Row | Compound | Effect on COVID-19 symptoms [1] | Effect on enhanced TMPRSS2-induced production of S2′ with WT S [2] | Effect on TMPRSS2-enhanced fusion with μAS1/S2 [3] | Effect on TMPRSS2-reduced fusion with WT S [3]
1 | CN(C)C(=O)COC(=O)Cc1ccc(OC(=O)c2ccc(NC(=N)N)cc2)cc1 [camostat mesylate] | did not ameliorate COVID-19 symptoms |  |  | 
2 | CN(C)C(=O)COC(=O)Cc1ccc(OC(=O)c2ccc(NC(=N)N)cc2)cc1 [camostat] |  | eliminated | largely attenuated | completely restored
